Test results reported in patent publication US9232796B2, “Herbicidal compositions comprising 4-amino-3-chloro-5-fluoro-6-(4-chloro-2-fluoro-3-methoxyphenyl) pyridine-2-carboxylic acid or a derivative thereof and acetyl-CoA carboxylase (ACCase) inhibitors” (DOW AGROSCIENCES LLC, priority 2012, dated 2016).

Key:
ECHOR [1] = test: Example V (second) postemergence foliar-applied ternary mixtures, greenhouse, direct seeded rice weeds; format: in vivo, Echinochloa oryzoides (Ard.) Fritsch
Description: Seeds or nutlets of the desired test plant species were planted in a soil matrix prepared by mixing a sandy loam or loam soil (e.g., 32 percent silt, 23 percent clay, and 45 percent sand, with a pH of about 6.5 and an organic matter content of about 1.9 percent) and calcareous grit in an 80 to 20 ratio. The soil matrix was contained in plastic pots with a volume of 1 quart and a surface area of 83.6 square centimeters (cm^2). […] The plants were grown for 8-22 days in a greenhouse with an approximate 14 hr. photoperiod which was maintained at about 29° C. during the day and 26° C. during the night. Nutrients (Peters Excel® 15-5-15 5-Ca 2-Mg and iron chelate) were applied in the irrigation solution as needed and water was added on a regular basis. Supplemental lighting was provided with overhead metal halide 1000-Watt lamps as necessary. The plants were employed for testing when they reached the first through fourth true leaf stage.
(§1) Treatments consisted of the benzyl ester of 4-amino-3-chloro-5-fluoro-6-(4-chloro-2-fluoro-3-methoxy-phenyl)pyridine-2-carboxylic acid (Compound A), formulated as an SC (suspension concentrate), an ACCase inhibitor, and a third herbicidal component, each applied alone and in ternary combination. Forms of compound A were applied on an acid equivalent basis.
(§2) For treatments comprised of formulated compounds, measured amounts of compounds were placed individually in 25 mL glass vials and diluted in a volume of 1.25% (v/v) Agri-Dex® crop oil concentrate to obtain 12× stock solutions. […] Application solutions were prepared by adding an appropriate amount of each stock solution (e.g., 1 mL) and diluted to the appropriate final concentrations with the addition of 9 mL of an aqueous mixture of 1.25% (v/v) crop oil concentrate so that the final spray solutions contained 1.25% (v/v) crop oil concentrate.
(§3) As required, additional water and/or 97:3 v/v acetone/DMSO was added to individual application solutions so that the final acetone and DMSO concentrations of the application solutions being compared were 8.1% and 0.25%, respectively.
(§4) All stock solutions and applications solutions were visually inspected for compound compatibility prior to application. Spray solutions were applied to the plant material with an overhead Mandel track sprayer equipped with a 8002E nozzles calibrated to deliver 187 L/ha over an application area of 0.503 m^2 at a spray height of 18 inches (46 cm) above average plant canopy height. Control plants were sprayed in the same manner with the solvent blank.
(§5) The treated plants and control plants were placed in a greenhouse as described above and watered by sub-irrigation to prevent wash-off of the test compounds. After approximately 3 weeks, the condition of the test plants as compared with that of the untreated plants was determined visually and scored on a scale of 0 to 100 percent where 0 corresponds to no injury or growth inhibition and 100 corresponds to complete kill.
(§6) Colby's equation was used to determine the herbicidal effects expected from the mixtures (Colby, S. R. 1967. Calculation of the synergistic and antagonistic response of herbicide combinations. Weeds 15:20-22.).
The following equation was used to calculate the expected activity of mixtures containing three active ingredients, A, B, and C: Expected=A+B+C−((A×B+A×C+B×C)/100)+(A×B×C/10000)

ECHCG = test: as above; format: in vivo, Echinochloa crus-galli (L.) Beauv.
Text: Seeds or nutlets of the desired test plant species were planted in a soil matrix prepared by mixing a sandy loam or loam soil (e.g., 32 percent silt, 23 percent clay, and 45 percent sand, with a pH of about 6.5 and an organic matter content of about 1.9 percent) and calcareous grit in an 80 to 20 ratio. The soil matrix was contained in plastic pots with a volume of 1 quart and a surface area of 83.6 square centimeters (cm^2). When required to ensure good germination and healthy plants, a fungicide treatment and/or other chemical or physical treatment was applied. The plants were grown for 8-22 days in a greenhouse with an approximate 14 hr. photoperiod which was maintained at about 29° C. during the day and 26° C. during the night. Nutrients (Peters Excel® 15-5-15 5-Ca 2-Mg and iron chelate) were applied in the irrigation solution as needed and water was added on a regular basis. Supplemental lighting was provided with overhead metal halide 1000-Watt lamps as necessary. The plants were employed for testing when they reached the first through fourth true leaf stage.
as §1
The ACCase inhibitor component was applied on an active ingredient basis and included cyhalofop-R-butyl formulated as Clincher® SF, fenoxaprop-p-ethyl formulated as RiceStar® HT, and profoxydim formulated as Aura® 20EC. Other herbicidal components were applied on an active ingredient or acid equivalent basis depending on the compound and included penoxsulam formulated as Grasp® SC, bentazon sodium formulated as Basagran®, triclopyr […] (TEA) salt formulated as Grandstand® R, bispyribac sodium formulated as Regiment® 80WP, imazamox ammonium formulated as Beyond®, benzobicyclon, quinclorac formulated as Facet® 75DF, glyphosate dimethylammonium (DMA) salt formulated as Durango® DMA, glufosinate ammonium formulated as Ignite® 280, fentrazamide formulated as an emulsifiable concentrate (EC), propyrisulfuron formulated as Zeta One®, and indanofan (technical grade material).
(§7) Treatment requirements were calculated based upon the rates being tested, the concentration of active ingredient or acid equivalent in the formulation, and a 12 mL application volume at a rate of 187 L/ha.
as §2, §3, §4
The treated plants and control plants were placed in a greenhouse as described above and watered by sub-irrigation to prevent wash-off of the test compounds. […]

ECHOR [2] = test: Example II in-water applied, greenhouse, transplanted paddy rice weeds; format: in vivo, Echinochloa oryzoides (Ard.) Fritsch; settings: in-water
Description: (§8) Weed seeds or nutlets of the desired test plant species were planted in puddled soil (mud) prepared by mixing a shredded, non-sterilized mineral soil (50.5 percent silt, 25.5 percent clay, and 24 percent sand, with a pH of about 7.6 and an organic matter content of about 2.9 percent) and water at a 1:1 volumetric ratio. The prepared mud was dispensed in 365 mL aliquots into 16-ounce (oz.) non-perforated plastic pots with a surface area of 86.59 square centimeters (cm^2) leaving a headspace of 3 centimeters (cm) in each pot. Mud was allowed to dry overnight prior to planting or transplanting. Rice seeds were planted in Sun Gro MetroMix® 306 planting mixture, which typically has a pH of 6.0 to 6.8 and an organic matter content of about 30 percent, in plastic plug trays. Seedlings at the second or third leaf stage of growth were transplanted into 860 mL of mud contained in 32-oz. non-perforated plastic pots with a surface area of 86.59 cm^2 4 days prior to herbicide application. The paddy was created by filling the headspace of the pots with 2.5 to 3 cm of water. […] The plants were grown for 4-22 days in a greenhouse with an approximate 14 hr. photoperiod which was maintained at about 29° C. during the day and 26° C. during the night. Nutrients were added as Osmocote® (19:6:12, N:P:K+minor nutrients) at 2 g per 16-oz. pot and 4 g per 32-oz. pot. Water was added on a regular basis to maintain the paddy flood, and supplemental lighting was provided with overhead metal halide 1000-Watt lamps as necessary. The plants were employed for testing when they reached the first through fourth true leaf stage.
(§9) Treatments consisted of the acid or esters of 4-amino-3-chloro-5-fluoro-6-(4-chloro-2-fluoro-3-methoxy-phenyl)pyridine-2-carboxylic acid (compound A) each formulated as an SC (suspension concentrate) and various herbicidal components alone and in combination.
(§10) For formulated compounds, a measured amount was placed in an individual 100 or 200 mL glass vial and was dissolved in a volume of 1.25% (v/v) Agri-Dex® crop oil concentrate to obtain application solutions.
(§11) Applications were made by injecting with a pipetter appropriate amounts of the application solutions, individually and sequentially, into the aqueous layer of the paddy. Control plants were treated in the same manner with the solvent blank. Applications were made so that all treated plant material received the same concentrations of acetone and crop oil concentrate.
as §5, with “water was added as needed” for “watered by sub-irrigation”, “maintain a paddy flood.” for “prevent wash-off of the test compounds.”, “weeks” for “weeks,”
as §6
(§12) The following equation was used to calculate the expected activity of mixtures containing two active ingredients, A and B: Expected=A+B−(A×B/100)

CYPRO = test: as above; format: in vivo, Cyperus rotundus L.
Description: as §8, §9, §10, §11
as §5, with “water was added as needed” for “watered by sub-irrigation”, “maintain a paddy flood.” for “prevent wash-off of the test compounds.”, “weeks” for “weeks,”
as §6, §12

IPOHE = test: Example I postemergence foliar-applied, greenhouse, direct seeded rice weeds; format: in vivo, Ipomoea hederacea Jacq.
Text: Seeds or nutlets of the desired test plant species were planted in a soil matrix prepared by mixing a loam or sandy loam soil (e.g., 28.6 percent silt, 18.8 percent clay, and 52.6 percent sand, with a pH of about 5.8 and an organic matter content of about 1.8 percent) and calcareous grit in an 80 to 20 ratio. The soil matrix was contained in plastic pots with a volume of 1 quart and a surface area of 83.6 square centimeters (cm^2). When required to ensure good germination and healthy plants, a fungicide treatment and/or other chemical or physical treatment was applied. The plants were grown for 8-22 days in a greenhouse with an approximate 14 hr. photoperiod which was maintained at about 29° C. during the day and 26° C. during the night. Nutrients (Peters Excel® 15-5-15 5-Ca 2-Mg and iron chelate) were applied in the irrigation solution as needed and water was added on a regular basis. Supplemental lighting was provided with overhead metal halide 1000-Watt lamps as necessary. The plants were employed for testing when they reached the first through fourth true leaf stage.
Treatments consisted of the acid or esters of 4-amino-3-chloro-5-fluoro-6-(4-chloro-2-fluoro-3-methoxy-phenyl)pyridine-2-carboxylic acid (Compound A), each formulated as an SC (suspension concentrate), and various herbicidal components alone and in combination.
Other herbicidal components were applied on an acid equivalent (ae) or active ingredient (ai) basis and included acetyl coA carboxylase (ACCase)-inhibiting herbicides (cyclohexanedione and aryloxyphenoxypropionate chemical classes) cyhalofop-butyl formulated as Clincher® SF (285 gr ai/L EC), diclofop-methyl formulated as Hoelon® 3EC, fenoxaprop-p-ethyl+isoxadifen-ethyl formulated as RiceStar® HT (0.58 lb./gal EC), fenoxaprop-p-ethyl+mefenpyr diethyl formulated as Puma® IEC, metamifop formulated as Metamifop EC, haloxyfop-methyl formulated as Gallant Super®, fluazifop-p-butyl formulated as Fusilade® DX, quizalofop-p-ethyl formulated as Assure® II, profoxydim formulated as Aura® 20EC, clethodim applied as Intensity®, sethoxydim formulated as Poast®, and tralkoxydim formulated as Achieve®.
as §7
as §2, with “crop oil concentrated to obtain” for “crop oil concentrate to obtain”, “addition of 10 mL of” for “addition of 9 mL of”, “solutions contained 1.25+/−0.05% (v/v) crop” for “solutions contained 1.25% (v/v) crop”
All stock solutions and applications solutions were visually inspected for compound compatibility prior to application. Spray solutions were applied to the plant material with an overhead Mandel track sprayer equipped with a 8002E nozzles calibrated to deliver 187 L/ha over an application area of 0.503 m^2 at a spray height of 18 to 20 inches (46 to 50 cm) above average plant canopy height. Control plants were sprayed in the same manner with the solvent blank.
as §5, with “kill. […]” for “kill.”

## CCN(C(=O)n1nnn(-c2ccccc2Cl)c1=O)C1CCCCC1 [Fentrazamide]
ECHOR [1]; 33.75 gai/ha
  Visual Weed Control (%)- 22 DAA ECHOR Obs: 3%
ECHOR [1]; 67.5 gai/ha
  Visual Weed Control (%)- 22 DAA ECHOR Obs: 0%
ECHCG; 33.75 gai/ha
  Visual Weed Control (%) - 22 DAA ECHCG Obs: 0%
ECHCG; 67.5 gai/ha
  Visual Weed Control (%) - 22 DAA ECHCG Obs: 0%

## CCCc1ccc2nc(Cl)c(S(=O)(=O)NC(=O)Nc3nc(OC)cc(OC)n3)n2n1 [Propyrisulfuron]
ECHOR [1]; 22.5 gai/ha
  Visual Weed Control (%) - 22 DAA ECHOR Obs: 55%

## CCCCOC(=O)[C@@H](C)Oc1ccc(Oc2ccc(C(F)(F)F)cn2)cc1 [Fluazifop-p-butyl, butyl(2R)-2-[4-[[5-(trifluoromethyl)-2-pyridinyl]oxy]phenoxy]propanoate, reference compound]
ECHOR [2]; 45 gai/ha
  Visual Weed Control (%) - 21 DAA ECHOR Obs: 0%
ECHOR [2]; Fluazifop-P-butyl 90 gae/ha
  Visual Weed Control (%) - 21 DAA ECHOR Obs: 25%
CYPRO; Fluazifop-P-butyl 90 gae/ha
  Visual Weed Control (%) - 21 DAA CYPRO Obs: 0%
CYPRO; Fluazifop-P-butyl 180 gae/ha
  Visual Weed Control (%) - 21 DAA CYPRO Obs: 0%
IPOHE; 45 gae/ha
  Visual Weed Control (%) - 19 DAA IPOHE Obs: 0%
IPOHE; 90 gae/ha
  Visual Weed Control (%) - 19 DAA IPOHE Obs: 0%
IPOHE; 180 gae/ha
  Visual Weed Control (%) - 19 DAA IPOHE Obs: 0%
